Data published in patent EP2891491A1, “Use of (r)-phenylpiracetam for the treatment of sleep disorders” (Merz Pharma GmbH & Co. KGaA, priority 2014, dated 2015).

Experiments:
[1] = brain microdialysis: concentration of (R)-phenylpiracetam in the brain after i.p. application; assay type: in vivo, rats; details: rat
Description: EXAMPLE 3: Assessment of the concentration of (R)-phenylpiracetam in the brain using brain microdialysis - Figs. 2, 14, 15
Naive adult male Sprague-Dawley rats (240-360 g, Janvier, France) were used for the study kept under standard conditions. All experiments were conducted during the light period of the day-night cycle.
Siliconized guide cannula (MAB 6.14.IC) (MAB, Stockhom, Sweden) were implanted unilaterally in pentobarbital anaesthetized animals aiming at the caudatus putamen (CPu; AP: +0.1, LM: ± 2.6, DV: -3.2 mm relative to bregma; -3.3 mm interaural) according to the atlas of Paxinos and Watson (loc. cit.). Rats were given at least 3 days to recover from surgery before starting microdialysis experiments.
Microdialysis experiments were performed in the home cage of the animal. A microdialysis probe (MAB 6.14.4.; 4 mm exposed membrane length, polyethersulfone (PES) membrane; MAB, Stockholm, Sweden) was lowered through the guide cannula into the CPu (ventral position of probe tip with reference to the skull: -7.2 mm) ca. 12 hours before the sampling and left in place for the whole testing period.
The probes were perfused with aCSF at a flow rate of 2 µl/min using a CMA 102 perfusion pump (CMA, Solna, Sweden). The composition of the aCSF was 147 mM Na^+, 2.7 mM K^+, 1.2 mM Ca^2+, 0.85 mM Mg^2+, 0.04 mM ascorbic acid. […]

[2] = model for depression; cited from earlier work
[3] = tested on: extracellular dopamine levels in rat striatum; experiment: brain microdialysis: extracellular dopamine levels in rat striatum; assay type: in vivo, rats; details: 100 mg/kg i.p.
Description: EXAMPLE 2: Assessment of (R)-phenylpiracetam on extracellular dopamine levels in rat striatum using brain microdialysis - Fig. 1
(R)-Phenylpiracetam was dissolved in saline and injected intraperitoneally (i.p).
Adult male Sprague-Dawley rats (n = 5, ∼300 g; Harlan, The Netherlands) were used for the experiments. After surgery animals were housed individually (cages 30 cm x 30 cm x 40 cm) with food and water was ad libitum available at standard conditions. The post-surgery interval for recovery was minimally 48 h.
Rats were anesthetized using isoflurane (2%, 800 ml/min O2), and placed in a stereotaxic frame (Kopf instruments, USA). […]
Concentrations of DA and DOPAC were determined in the same sample, by HPLC separation and electrochemical detection. DA and DOPAC were detected electrochemically using a potentiostate (Antec Leyden, model Intro, the Netherlands) fitted with a glassy carbon electrode set at +500 mV vs. Ag/AgCl (Antec Leyden, the Netherlands). Data was analyzed by Chromatography Data System (Shimadzu, class-vp, Japan) software. Concentrations were quantified by the external standard method.
After transmitter levels were stabilized, four consecutive pre-treatment microdialysis samples with less than 50% variation were taken as baseline and their mean was set at 100%. […] Transmitter concentration in each fraction was expressed as % ± SEM (standard error mean) of baseline.

Compound: NC(=O)CN1C[C@@H](c2ccccc2)CC1=O [(R)-phenylpiracetam]
- free concentration in extracellular fluid in the brain ([1]; 50 mg/kg): 20 µM
- free concentration in extracellular fluid in the brain ([1]; 100 mg/kg): 50 µM
- potency in the forced swim test [2]: only slightly more potent than (S)-phenylpiracetam
- concentration of dopamine in the striatum [3]: increases extracellular dopamine levels
